Counter-ions that a name gives are not always drawn. Like-named read-outs stand apart in the source and are kept apart here.
Experiments:
[1] = tested on: SUDHL5 cells; assay: Induction of caspase-3/7 activity (Caspase-Glo 3/7), SUDHL5; assay type: cell-based; conditions: EC50, median, SUDHL5, 3 h treatment
How it was run: (§1)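 Apoptosis induction was gauged via caspase-3/7 activity (Caspase-Glo 3/7) following a 3 h compound incubation at 37 °C. Background from medium-only wells was removed from each value.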

[2] = tested on: SUDHL10 cells; assay: Induction of caspase-3/7 activity (Caspase-Glo 3/7), SUDHL10; assay type: cell-based; conditions: EC50, median, SUDHL10, 3 h treatment
How it was run: as §1

[3] = tested on: SUDHL5 cells; assay: Antiproliferation assay (CellTiter-Glo, 72 h), SUDHL5; assay type: cell-based; conditions: IC50, median, SUDHL5, 72 h, read-out: Antiproli SUDHL5 [M] (median)
How it was run: (§2)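 Proliferation is determined by CellTiter-Glo luminescence following 72 h incubation with compound at 37 °C, relative to a time-zero plate measured at plating.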

[4] = tested on: AMO-1 cells; assay: Antiproliferation assay (CellTiter-Glo, 72 h), AMO-1; assay type: cell-based; conditions: IC50, median, AMO-1, 72 h, read-out: Antiproli AMO-1 [M] median
How it was run: as §2

[5] = tested on: SUDHL5 cells; assay: Induction of cytotoxicity (CellTiter-Glo, 5 h), SUDHL5; conditions: SUDHL5, 5 h
[6] = tested on: SUDHL10 cells; assay: Induction of cytotoxicity (CellTiter-Glo, 5 h), SUDHL10; conditions: SUDHL10, 5 h
[7] = tested on: HMC-1-8 cells; assay: Antiproliferation assay (CellTiter-Glo, 72 h), HMC-1-8; assay type: cell-based; conditions: IC50, median, HMC-1-8, 72 h, read-out: Antiproli HMC-1-8 [M] median
How it was run: as §2

[8] = Homo sapiens, SU-DHL-5, 5 h, read-out: Cytotox SUDHL5 [M] (median), IC50, median
[9] = Homo sapiens, SU-DHL10, 5 h, read-out: Cytotox SUDHL10 [M] (median), IC50, median
[10] = read-out: Cytotox SUDHL5 [M] (median), IC50, median
[11] = read-out: Cytotox SUDHL10 [M] (median), IC50, median

CCOC(=O)c1c(CCCOc2cccc3cc(F)ccc23)c2ccc(Cl)c3c2n1CCN(S(=O)(=O)c1ccccc1[N+](=O)[O-])CCCc1nn(C)c(CC)c1-3
ring closure, yield of all isomers (from CCOC(=O)c1[nH]c2c(-c3c(CCCN(CCOS(C)(=O)=O)S(=O)(=O)c4ccccc4[N+](=O)[O-])nn(C)c3CC)c(Cl)ccc2c1CCCOc1cccc2cc(F)ccc12, amine bond, NaH, DMF, 56.65 mM, 40.0 °C): 70.4%

CCOC(=O)c1c(CCCOc2cccc3cc(F)ccc23)c2ccc(Cl)c3c2n1CCC1(CC1)COCc1nn(C)c(CC)c1-3
ring closure, yield of all isomers (from CCOC(=O)c1[nH]c2c(-c3c(COCC4(CCO)CC4)nn(C)c3CC)c(Cl)ccc2c1CCCOc1cccc2cc(F)ccc12, amine bond, PPh3/di-tert-butyl azodicarboxylate (Mitsunobu), THF, 83.2 mM): 86.6%

CCOC(=O)c1c(CCCOc2cccc3cc(F)ccc23)c2ccc(Cl)c3c2n1CCCCN(C)Cc1nn(C)c(CC)c1-3
ring closure, yield of all isomers (from CCOC(=O)c1c(CCCOc2cccc3cc(F)ccc23)c2ccc(Cl)c(-c3c(CBr)nn(C)c3CC)c2n1CCCCNC, amine bond, cesium carbonate, DMF, 214.0 mM, 60.0 °C): 22%

CCOC(=O)c1c(CCCOc2cccc3cc(F)ccc23)c2ccc(Cl)c3c2n1CCC(F)(F)COCc1nn(C)c(CC)c1-3
ring closure, yield of all isomers (from CCOC(=O)c1[nH]c2c(-c3c(COCC(F)(F)CCO)nn(C)c3CC)c(Cl)ccc2c1CCCOc1cccc2cc(F)ccc12, amine bond, triphenylphosphine / di-tert-butyl azodicarboxylate, THF): 72.9%

CCOC(=O)c1c(CCCOc2cccc3ccccc23)c2ccc(Cl)c3c2n1C[C@@H]1CC[C@@H]1COCc1nn(C)c(C)c1-3
ring closure, yield of all isomers (from CCOC(=O)c1[nH]c2c(-c3c(COC[C@H]4CC[C@H]4CO)nn(C)c3C)c(Cl)ccc2c1CCCOc1cccc2ccccc12, amine bond, PPh3/di-tert-butyl azodicarboxylate, THF, 14.5 mM): 34.5%

CCOC(=O)c1c(CCCOc2cccc3cc(F)ccc23)c2ccc(Cl)c3c2n1CCCCNCc1nn(C)c(C)c1-3
ring closure, yield of all isomers (from CCOC(=O)c1c(CCCOc2cccc3cc(F)ccc23)c2ccc(Cl)c(-c3c(CBr)nn(C)c3C)c2n1CCCCN, amine bond, Cs2CO3, DMF, 205.0 mM, 60.0 °C): 6.6%

CCOC(=O)c1c(CCCO[Si](C)(C)C(C)(C)C)c2ccc(Cl)c3c2n1CCCCCCc1nn(C)c(CC)c1-3
ring closure, yield of all isomers (from CCOC(=O)c1[nH]c2c(-c3c(CCCCCCBr)nn(C)c3CC)c(Cl)ccc2c1CCCO[Si](C)(C)C(C)(C)C, amine bond, Cs2CO3, DMF, 71.8 mM): 99.5%

CCOC(=O)c1c(CCCOc2cccc3cc(F)ccc23)c2ccc(Cl)c3c2n1CC(F)(F)CCOCc1nn(C)c(C)c1-3
ring closure, yield of all isomers (from CCOC(=O)c1[nH]c2c(-c3c(COCCC(F)(F)CO)nn(C)c3C)c(Cl)ccc2c1CCCOc1cccc2cc(F)ccc12, amine bond, triphenylphosphine / di-tert-butyl azodicarboxylate, THF, 32.0 h): 46.9%

CCc1nn(C)c2c1-c1c(Cl)ccc3c(CCCOc4cccc5cc(F)ccc45)c(C(=O)O)n(c13)CCOCCC2 [Example 125, (rac)-4-chloro-3-ethyl-7-{3-[(6-fluoro-1-naphthyl)oxy]propyl}-1-methyl-1,10,11,13,14,15-hexahydropyrazolo[4′,3′:7,8][1,4]oxazacycloundecino[6,5,4-hi]indole-8-carboxylic acid]
ring closure, yield of all isomers (from CCOC(=O)c1[nH]c2c(-c3c(CC)nn(C)c3CCCOCCO)c(Cl)ccc2c1CCCOc1cccc2cc(F)ccc12, amine bond, NaH, DMF, 55.64 mM, 40.0 °C, 3 steps): 76.1%
EC50 ([1]; Homo sapiens, SU-DHL-5, 3 h): 1400 nM
EC50 ([2]; Homo sapiens, SU-DHL10, 3 h): 4600 nM
IC50 ([3]; Homo sapiens, SU-DHL-5, 72 h): 7.9e-06 M
IC50 ([4]; Homo sapiens, AMO1, 72 h): 1.9e-06 M
IC50 [5, 8]: 1.3e-06 M
IC50 [6, 9]: 5.4e-06 M

CCOC(=O)c1c(CCCOc2cccc3cc(F)ccc23)c2ccc(Cl)c3c2n1C[C@@H]1C[C@@H]1COCc1nn(C)c(CC)c1-3 (single isomer, unassigned)
ring closure, yield of all isomers (from CCOC(=O)c1[nH]c2c(-c3c(COC[C@H]4C[C@H]4CO)nn(C)c3CC)c(Cl)ccc2c1CCCOc1cccc2cc(F)ccc12, amine bond, PPh3/di-tert-butyl azodicarboxylate (Mitsunobu), THF, 24.7 mM): 84.6%

CCOC(=O)c1c(CCCOc2cccc3ccccc23)c2ccc(Cl)c3c2n1CCC1(CC1)COCc1nn(C)c(CC)c1-3
ring closure, yield of all isomers (from CCOC(=O)c1[nH]c2c(-c3c(COCC4(CCO)CC4)nn(C)c3CC)c(Cl)ccc2c1CCCOc1cccc2ccccc12, amine bond, triphenylphosphine / diisopropyl azodicarboxylate, THF, 98.3 mM): 87.9%

CCc1c2c(nn1C)CCCN(CCCCOC(C)=O)CCn1c(C(=O)O)c(CCCOc3cccc4cc(F)ccc34)c3ccc(Cl)c-2c31 (racemic) [Example 121, (rac)-12-(4-acetoxybutyl)-4-chloro-3-ethyl-7-{3-[(6-fluoro-1-naphthyl)oxy]propyl}-2-methyl-10,11,12,13,14,15-hexahydro-2H-pyrazolo[3′,4′:8,9][1,4]diazacycloundecino[10,11,1-hi]indole-8-carboxylic acid]
EC50 ([1]; Homo sapiens, SU-DHL-5, 3 h): 1200 nM
EC50 ([2]; Homo sapiens, SU-DHL10, 3 h): 1700 nM
IC50 ([3]; Homo sapiens, SU-DHL-5, 72 h): 9e-07 M
IC50 ([4]; Homo sapiens, AMO1, 72 h): 1.3e-06 M
IC50 ([7]; 72 h): 9.9e-06 M
IC50 [5, 8]: 1.3e-06 M
IC50 [6, 9]: 1.9e-06 M

CCc1c2c(nn1C)COCC(O)CCn1c(C(=O)O)c(CCCOc3cccc4cc(F)ccc34)c3ccc(Cl)c-2c31 (stereo not drawn) [Example 99, 4-chloro-3-ethyl-7-{3-[(6-fluoronaphthalen-1-yl)oxy]propyl}-12-hydroxy-2-methyl-2,10,11,12,13,15-hexahydropyrazolo[4′,3′:9,10][1,6]oxazacycloundecino[8,7,6-hi]indole-8-carboxylic acid-N-ethylethanamine salt]
EC50 [1]: 190 nM
EC50 [2]: 180 nM
IC50 ([3]; Homo sapiens, SU-DHL-5, 72 h): 2.6e-07 M
IC50 ([4]; Homo sapiens, AMO1, 72 h): 5.2e-07 M
IC50 ([7]; 72 h): 5.9e-06 M
IC50 [5, 10]: 2.7e-07 M
IC50 [6, 11]: 2.3e-07 M

CCc1c2c(nn1C)CCCN(C)CCn1c(C(=O)O)c(CCCOc3cccc4cc(F)ccc34)c3ccc(Cl)c-2c31 (single isomer, unassigned) [Example 116, (+)-4-chloro-3-ethyl-7-{3-[(6-fluoronaphthalen-1-yl)oxy]propyl}-2,12-dimethyl-10,11,12,13,14,15-hexahydro-2H-pyrazolo[3′,4′:8,9][1,4]diazacycloundecino[10,11,1-hi]indole-8-carboxylic acid]
EC50 [1]: 290 nM
EC50 [2]: 290 nM
IC50 [3]: 3.4e-07 M
IC50 [4]: 2.1e-07 M
IC50 ([7]; 72 h): 2.3e-06 M
IC50 [5, 10]: 4.1e-07 M
IC50 [6, 11]: 3.4e-07 M

CCc1c2c(nn1C)COCCC(F)(F)Cn1c(C(=O)O)c(CCCOc3cccc4cc(F)ccc34)c3ccc(Cl)c-2c31 (single isomer, unassigned) [Example 97, (−)-4-chloro-3-ethyl-11,11-difluoro-7-{3-[(6-fluoronaphthalen-1-yl)oxy]propyl}-2-methyl-2,10,11,12,13,15-hexahydropyrazolo[4′,3′:9,10][1,6]oxazacycloundecino[8,7,6-hi]indole-8-carboxylic acid]
EC50 ([1]; listed as 097): 320 nM
EC50 ([2]; listed as 097): 450 nM
IC50 ([3]; listed as 097): 5.5e-07 M
IC50 ([4]; listed as 097): 2.2e-07 M
IC50 ([7]; listed as 097): 2.2e-06 M
IC50 ([5]; read-out: Cytotox SUDHL5 [M] (median), IC50, median, listed as 097): 4.4e-07 M
IC50 ([6]; read-out: Cytotox SUDHL10 [M] (median), IC50, median, listed as 097): 4.2e-07 M

CCOC(=O)c1c(CCCOc2cccc3cc(F)ccc23)c2ccc(Cl)c3c2n1CC(F)(F)CCOCc1nn(C)c(CC)c1-3
ring closure, yield of all isomers (from CCOC(=O)c1[nH]c2c(-c3c(COCCC(F)(F)CO)nn(C)c3CC)c(Cl)ccc2c1CCCOc1cccc2cc(F)ccc12, amine bond, PPh3/di-tert-butyl azodicarboxylate (Mitsunobu), THF, 23.5 mM): 81.9%

CCOC(=O)c1c(CCCOc2cccc3cc(F)ccc23)c2ccc(Cl)c3c2n1CC(F)(F)CCN(S(=O)(=O)c1ccccc1[N+](=O)[O-])Cc1nn(C)c(CC)c1-3
ring closure, yield of all isomers (from CCOC(=O)c1[nH]c2c(-c3c(CN(CCC(F)(F)COS(=O)(=O)C(F)(F)F)S(=O)(=O)c4ccccc4[N+](=O)[O-])nn(C)c3CC)c(Cl)ccc2c1CCCOc1cccc2cc(F)ccc12, amine bond, NaH, DMF, 259.0 mM): 41.3%

CCOC(=O)c1c(CCCOc2cccc3ccccc23)c2ccc(Cl)c3c2n1CC(F)(F)C(F)(F)COCc1nn(C)c(C)c1-3
ring closure, yield of all isomers (from CCOC(=O)c1[nH]c2c(-c3c(COCC(F)(F)C(F)(F)COS(C)(=O)=O)nn(C)c3C)c(Cl)ccc2c1CCCOc1cccc2ccccc12, amine bond, Cs2CO3, DMF, 2.12 mM): 7.6%
